Test results taken from ChEMBL document CHEMBL5247652, “Discovery of Novel Substrate-Competitive Lysine Methyltransferase G9a Inhibitors as Anticancer Agents” (J Med Chem, 2023).
In brackets after ≈: the same amount, converted by molar mass. Activity calls are given as the source filed them. No cut-off for these calls is given here.

Tests used:
[1] = biological target: T1, Histone-lysine N-methyltransferase EHMT2 (Homo sapiens, UniProt Q96KQ7); assay: Inhibition of G9a (unknown origin)
T1 sequence (Q96KQ7 whole entry): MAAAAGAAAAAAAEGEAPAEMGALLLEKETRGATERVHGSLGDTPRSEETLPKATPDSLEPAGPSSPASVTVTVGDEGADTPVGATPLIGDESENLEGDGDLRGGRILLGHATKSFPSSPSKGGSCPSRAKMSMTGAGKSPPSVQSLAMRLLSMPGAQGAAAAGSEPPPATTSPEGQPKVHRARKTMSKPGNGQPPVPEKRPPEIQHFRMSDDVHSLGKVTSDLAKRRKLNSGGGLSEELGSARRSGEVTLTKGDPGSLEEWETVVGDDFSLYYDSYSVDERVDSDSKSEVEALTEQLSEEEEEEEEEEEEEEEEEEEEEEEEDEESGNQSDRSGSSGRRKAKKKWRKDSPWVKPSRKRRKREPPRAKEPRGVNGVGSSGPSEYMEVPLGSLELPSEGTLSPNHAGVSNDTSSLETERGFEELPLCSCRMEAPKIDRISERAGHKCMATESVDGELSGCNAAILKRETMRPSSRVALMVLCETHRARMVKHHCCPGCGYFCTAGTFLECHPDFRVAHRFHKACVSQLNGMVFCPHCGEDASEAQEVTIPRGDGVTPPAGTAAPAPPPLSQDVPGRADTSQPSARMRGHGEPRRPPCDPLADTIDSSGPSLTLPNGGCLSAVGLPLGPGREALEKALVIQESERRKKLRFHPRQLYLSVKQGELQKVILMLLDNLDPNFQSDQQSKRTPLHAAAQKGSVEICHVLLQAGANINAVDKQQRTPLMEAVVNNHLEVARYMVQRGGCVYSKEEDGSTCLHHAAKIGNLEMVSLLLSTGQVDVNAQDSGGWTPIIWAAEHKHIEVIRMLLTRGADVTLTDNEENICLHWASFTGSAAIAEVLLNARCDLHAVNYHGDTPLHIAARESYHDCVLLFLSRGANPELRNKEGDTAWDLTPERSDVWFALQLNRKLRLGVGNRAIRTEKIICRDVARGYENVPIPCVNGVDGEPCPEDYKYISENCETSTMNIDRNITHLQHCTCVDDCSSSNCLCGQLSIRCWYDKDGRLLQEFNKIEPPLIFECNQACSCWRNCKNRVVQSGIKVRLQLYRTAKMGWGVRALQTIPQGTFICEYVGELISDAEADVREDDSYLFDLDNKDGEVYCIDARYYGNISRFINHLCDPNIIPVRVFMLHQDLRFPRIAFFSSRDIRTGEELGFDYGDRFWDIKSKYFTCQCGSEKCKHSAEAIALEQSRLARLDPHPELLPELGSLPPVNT

[2] = biological target: T2, Histone-lysine N-methyltransferase EHMT1 (Homo sapiens, UniProt Q9H9B1); assay: Inhibition of GLP (unknown origin)
T2 sequence (Q9H9B1 whole entry): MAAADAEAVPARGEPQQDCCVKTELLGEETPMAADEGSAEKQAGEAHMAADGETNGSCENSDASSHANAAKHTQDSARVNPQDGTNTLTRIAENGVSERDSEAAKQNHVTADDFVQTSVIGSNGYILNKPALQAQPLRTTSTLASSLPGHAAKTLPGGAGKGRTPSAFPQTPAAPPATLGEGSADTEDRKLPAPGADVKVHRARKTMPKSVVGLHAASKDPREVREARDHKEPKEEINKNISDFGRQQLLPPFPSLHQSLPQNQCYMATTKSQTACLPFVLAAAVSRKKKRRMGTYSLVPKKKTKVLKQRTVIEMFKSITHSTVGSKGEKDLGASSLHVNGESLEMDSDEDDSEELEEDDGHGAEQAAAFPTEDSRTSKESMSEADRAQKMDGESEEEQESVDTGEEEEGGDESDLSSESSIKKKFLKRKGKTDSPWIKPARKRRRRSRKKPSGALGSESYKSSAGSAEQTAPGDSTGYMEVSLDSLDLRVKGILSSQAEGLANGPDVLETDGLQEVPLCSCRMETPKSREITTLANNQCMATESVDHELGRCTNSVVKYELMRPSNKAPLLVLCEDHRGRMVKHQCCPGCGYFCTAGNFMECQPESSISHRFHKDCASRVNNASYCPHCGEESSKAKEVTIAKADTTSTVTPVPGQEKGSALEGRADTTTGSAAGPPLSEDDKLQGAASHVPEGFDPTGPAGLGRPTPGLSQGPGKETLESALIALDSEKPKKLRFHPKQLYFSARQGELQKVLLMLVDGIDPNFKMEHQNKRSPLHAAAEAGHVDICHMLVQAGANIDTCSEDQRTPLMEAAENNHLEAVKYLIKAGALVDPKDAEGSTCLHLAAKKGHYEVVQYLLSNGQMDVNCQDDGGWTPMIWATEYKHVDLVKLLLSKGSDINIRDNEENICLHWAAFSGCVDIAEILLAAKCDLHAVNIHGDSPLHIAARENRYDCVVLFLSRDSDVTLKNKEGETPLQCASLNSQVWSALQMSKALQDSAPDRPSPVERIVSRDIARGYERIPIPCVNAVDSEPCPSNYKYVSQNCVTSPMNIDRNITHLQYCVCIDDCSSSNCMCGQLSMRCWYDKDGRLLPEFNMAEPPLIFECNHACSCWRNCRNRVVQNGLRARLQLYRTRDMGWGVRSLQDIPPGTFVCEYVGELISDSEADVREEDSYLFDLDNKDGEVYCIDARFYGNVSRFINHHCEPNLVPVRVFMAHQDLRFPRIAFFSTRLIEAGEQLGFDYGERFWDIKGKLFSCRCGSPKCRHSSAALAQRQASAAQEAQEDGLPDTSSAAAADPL

[3] = biological target: T1, Histone-lysine N-methyltransferase EHMT2; assay: Inhibition of N-terminal GST-tagged human recombinant G9a (785 to 1210 residues) expressed in baculovirus infected Sf9 cells incubated for 1 hr by AlphaLISA analysis
[4] = test system: MOLT-4; assay: Antiproliferative activity against human MOLT-4 cells assessed as inhibition of cell growth with replenishment of medium with compound on day 4 and 7 and measured after 12 days by ATPlite assay; format: functional; details: MOLT-4, 288 h, time 12 day
[5] = test system: MOLT-4; assay: Antiproliferative activity against human MOLT-4 cells assessed as inhibition of cell growth with replenishment of medium with compound on day 4 and 7 by ATPlite assay; format: functional
[6] = Microsomal stability in human liver microsomes assessed as parent compound remaining after 30 mins in presence of NADPH by LC -MS/MS analysis; format: ADME, Microsome; details: read-out: Stability
[7] = Aqueous solubility of compound at pH 7.4 measured for 1 hr by UV-plate reader analysis; format: physicochemical; details: buffer
[8] = Permeability of compound by PAMPA assay; format: ADME; details: for Papp: read-out: permeability
[9] = Microsomal stability in mouse liver microsomes assessed as parent compound remaining after 30 mins in presence of NADPH by LC -MS/MS analysis; format: ADME, Microsome; details: read-out: Stability
[10] = test system: MOLT-4; assay: Downregulation of H3K9 dimethylation in human MOLT-4 cells at 0.1 uM by Western blot analysis; format: functional, cell-based
[11] = AUC (0 to infinity) in ICR mouse at 25 mg/kg, ip; format: ADME, organism-based; design: dose 25 mg/kg, route ip; details: in vivo
[12] = Cmax in ICR mouse at 25 mg/kg, ip; format: ADME, organism-based; design: dose 25 mg/kg, route ip; details: in vivo
[13] = test system: MOLT-4; assay: Downregulation of H3K9 dimethylation in human MOLT-4 cells at 1 uM by Western blot analysis; format: functional, cell-based
[14] = Tmax in ICR mouse at 25 mg/kg, ip; format: ADME, organism-based; details: in vivo
[15] = Half life in ICR mouse at 25 mg/kg, ip; format: ADME, organism-based; details: in vivo
[16] = Drug concentration in C57BL/6 mouse plasma at 20 mg/kg, ip measured after 4 hrs; format: ADME, organism-based
[17] = test system: Mus musculus; assay: In vivo inhibition of G9a in C57BL/6 mouse liver assessed as H3 histone methylation at 20 to 50 mg/kg, ip measured after 5 days by Westernblot analysis; format: functional, organism-based; details: dose 20-50 mg/kg, time 5.0 day
[18] = test system: Mus musculus; assay: In vivo inhibition of G9a in C57BL/6 mouse liver assessed as reduction in H3K9me2 level at 20 to 50 mg/kg, ip measured after 5 days by Westernblot analysis; format: functional, organism-based; details: dose 20-50 mg/kg, time 5.0 day
[19] = Toxicity in C57BL/6 mouse assessed as body weight loss at 20 to 50 mg/kg, ip measured after 48 weeks; format: organism-based; details: in vivo, 8064 h, dose 20-50 mg/kg
[20] = Drug concentration in C57BL/6 mouse plasma at 50 mg/kg, ip measured after 4 hrs; format: ADME, organism-based
[21] = Drug concentration in C57BL/6 mouse liver at 20 mg/kg, ip measured after 4 hrs; format: ADME, organism-based; details: read-out: Ct
[22] = test system: HCC; assay: Antitumor activity against DEN-induced […] HCC tumor in C57BL/6 mouse at 20 to 50 mg/kg, ip measured after 48 weeks; format: functional, organism-based; details: dose 20-50 mg/kg
[23] = Drug concentration in C57BL/6 mouse liver at 50 mg/kg, ip measured after 4 hrs; format: ADME, organism-based; details: read-out: Ct

Compound | IC50 [3] [nM] | GI50 [4] [nM] | GI50 [5] [nM] | remaining at 0.5 h [6] [%] | solubility at 1 h [7] [µM] | remaining at 0.5 h [9] [%] | also measured
COc1cc2c(cc1C1=CCN(C)CCC1)N=C(N)C21CCC1 | – | – | – | – | – | – | IC50 [1]: 12.6 nM; IC50 [2]: 75.7 nM
Cc1c(C(=O)N[C@@H](CCC2CC2)C(=O)Nc2ccccc2)[nH]c2c1C(=O)CC(C)(C)C2 | 39.6 | – | 61.5 | 36.5 | 32.4 (≈ 13.7 µg/mL) | 7.1 | Papp [8]: 6.35 ×10⁻⁶ cm/s; Activity [10]: Active
Cc1c(C(=O)N[C@H](CCC2CC2)C(=O)Nc2ccccc2)[nH]c2c1C(=O)CC(C)(C)C2 | 2100 | 1790 | – | – | – | – | AUC(0-inf) [11]: 10.3 µM·h; Cmax [12]: 4.14 µM; Activity [13]: inactive; Tmax [14]: 4 h; half-life [15]: 0.58 h
Cc1c(C(=O)NC(CCC2CC2)C(=O)Nc2ccccc2)[nH]c2c1C(=O)CC(C)(C)C2 (racemic) | – | 1790 | – | – | – | – | –
COc1cc2c(NC3CCN(C(C)C)CC3)nc(C3CCCCC3)nc2cc1OCCCN1CCCC1 | – | 188 | 188 | 89.7 | > 200 | 67 | permeability [8]: 1.89 10^-6 cm/s
Cc1ccc(NC(=O)[C@@H](CCC2CC2)NC(=O)c2[nH]c3c(c2C)C(=O)CC(C)(C)C3)cn1 | 50 | – | 176 | 40.2 | 50.8 (≈ 22.2 µg/mL) | 38.1 | Papp [8]: 9.64 ×10⁻⁶ cm/s

Continued, in another order:

IC50 [3] [nM] | GI50 [4] [nM] | GI50 [5] [nM] | remaining at 0.5 h [6] [%] | solubility at 1 h [7] [µM] | remaining at 0.5 h [9] [%] | Compound | also measured
66.7 | 278 | – | – | – | – | Cc1c(C(=O)NC(CCC2CC2)C(=O)Nc2ccc(C#N)cc2)[nH]c2c1C(=O)CC(C)(C)C2 (racemic) | –
50 | – | 220 | 51.9 | 4 (≈ 1.84 µg/mL) | 40.5 | CCc1c(C(=O)N[C@@H](CCC2CC2)C(=O)Nc2ccc(C#N)cc2)[nH]c2c1C(=O)CC(C)(C)C2 | –
– | 2370 | – | – | – | – | Cc1c(C(=O)N[C@H](CCC2CC2)C(=O)Nc2ccc(C#N)cc2)[nH]c2c1C(=O)CC(C)(C)C2 | AUC(0-inf) [11]: 418 µM·h; Cmax [12]: 42.4 µM; IC50 [1]: 27 nM; IC50 [2]: 53 nM; concentration at 4 h [16]: 9.6 µM; inhibition [17]: inactive; Activity [18]: Active; Activity [19]: Non-Toxic; concentration at 4 h [20]: 18.9 µM; Activity [13]: inactive; concentration at 4 h [21]: 23.5 µM; Activity [22]: Active; Tmax [14]: 4 h; concentration at 4 h [23]: 46.9 µM; half-life [15]: 1.4 h
55 | – | 91.3 | 1.8 | 3.7 (≈ 1.76 µg/mL) | 70.8 | CC(C)c1c(C(=O)N[C@@H](CCC2CC2)C(=O)Nc2ccc(C#N)cc2)[nH]c2c1C(=O)CC(C)(C)C2 | –
27 | 21.3 | 21.3 | 55.5 | 13.6 (≈ 6.07 µg/mL) | 19.3 | Cc1c(C(=O)N[C@@H](CCC2CC2)C(=O)Nc2ccc(C#N)cc2)[nH]c2c1C(=O)CC(C)(C)C2 | IC50 ([3]; sf9): 27 nM; Papp [8]: 3.12 ×10⁻⁶ cm/s; Activity [10]: Active
